Several values for one entry are separate records, joined by “and”; a condition that tells them apart may be missing. Equal entries are not always repeated.
Legend:
[1] = test system: adenocarcinoma of the stomach, pancreas, and large bowel; conditions: combined FU and radiation vs radiation therapy alone, patients; cited from earlier work
L1210 leukemia [2] = test: Combination chemotherapy of advanced L1210 leukemia, cure rate (greater than 60-day survival); assay type: in vivo, mice; conditions: at least 1000 mg/kg
Procedure: Compound Pt-307 was administered usually in a dosage regimen of 5-60 mg/kg of body weight. This was given as a single dose or on Days 1, 5, and 9 in the standard National Institutes of Health 10-day testing.
CY was utilized at an optimum 50 mg/kg of body weight (range 25-75 mg/kg ) preferably given at Day 3 in the 10-day testing. 5-FU was utilized at 75 mg/kg of body weight (range 50-100 mg/kg) at Day 3. HU was used in a high dosage of at least 1000 mg/kg of body weight (range 1000-1500 mg/kg). The 5-FU and the HU were utilized as ternary compositions only with cyclophosphamide and the platinum compound.
Hydroxyurea is utilized in combination therapy at a high dosage of at least 1000 mg/kg of body weight (range 1000-1500 mg/kg).

L1210 cells = test: In vitro growth inhibition of L1210 cells; assay type: cell-based, murine; conditions: growth inhibition by 50 percent
Text: (§1) The ID50 refers to the concentration of test compound required to
(§2) inhibit the growth of either the L1210 or L1210/DDP (NSC119875) resistant

[3] = test system: L1210/DDP (NSC119875) resistant cells; test: In vitro growth inhibition of L1210/DDP (NSC119875 resistant) cells; assay type: cell-based, murine; conditions: growth inhibition by 50 percent
Text: as §1, §2

P388 leukemia = test: In vivo activity against P388 leukemia; design: species or system murine; conditions: Days 1,5,9,13, NSC-119875 6.7 mg/kg, NSC-271674 20.0 mg/kg; for Survival (Days), P388: control 13.3 days
Text: (§3) Data are expressed as survival in days and as a percentage increase in […]

P388/DDP leukemia = test: In vivo activity against P388/DDP leukemia with acquired resistance to NSC-119875; design: species or system murine; conditions: for % ILS, P388/DDP / Survival (Days), P388/DDP: Days 1,5,9,13, NSC-119875 6.7 mg/kg, NSC-271674 20.0 mg/kg; for Survival (Days), P388/DDP: control 11.0 days
Text: P388/DDP refers to a tumor line with acquired resistance to NSC119875.
as §3

B16 melanoma = test: Panel of mouse tumors: B16 melanoma, survival time assay; assay type: in vivo; conditions: ip tumor, D1-9 ip
Procedure: (§4) *Survival time (mean or median) assay
(§5) **Tumor weight inhibition assay.
(§6) Data are expressed as a percentage of the survival time in days or the
(§7) tumor weights in mg of the treated mice divided by the corresponding
(§8) values for the control mice. All testing was performed using both platinu
(§9) compounds in the same experiment. The criteria for activity are as
(§10) follows: confirmed activity (activity from two separate laboratories) of
(§11) % T/C of 150 or more for survival systems and 10% or less for tumor weigh
(§12) inhibition assays. Lower levels of activity such as a % T/C of 125 for
(§13) survival systems and 42% for tumor weight inhibition assays are considere
(§14) statistically significant.

L1210 = test: Panel of mouse tumors: L1210, survival time assay; assay type: in vivo; conditions: ip tumor, D1-9 ip
Procedure: as §4, §6, §7, §8, §9, §10, §11, §12, §13, §14

Lewis lung = test: Panel of mouse tumors: Lewis lung, survival time assay; assay type: in vivo; conditions: iv tumor, D1-9 ip
Procedure: as §4, §6, §7, §8, §9, §10, §11, §12, §13, §14

CD8Fl mammary = test: Panel of mouse tumors: CD8Fl mammary, tumor weight inhibition assay; assay type: in vivo; conditions: sc tumor, Q7DX5 ip
Procedure: as §5, §6, §7, §8, §9, §10, §11, §12, §13, §14

Colon #38 = test: Panel of mouse tumors: Colon #38, tumor weight inhibition assay; assay type: in vivo; conditions: sc tumor, D2,9 ip
Procedure: as §5, §6, §7, §8, §9, §10, §11, §12, §13, §14

[4] = Renal Toxicity Screening Protocol, toxicity compared to NSC-119875; assay type: in vivo; conditions: for Body Weight Loss / Clinical Chemistry - Blood Urea Nitrogen / Clinical Chemistry - Creatinine / Clinical Chemistry - Serum Glutamic Pyruvic Transaminase / Hematology - Hematocrit / Hematology - White Blood Cell / Histopathology - Gastrointestinal / Histopathology - Hematopoietic / Histopathology - Lymphatic / Histopathology - Renal: score relative to NSC119875; for TOTAL SCORE: sum of ten parameter scores
L1210 leukemia [5] = test: L1210 leukemia in BDF1 mice, treatment (ip) on Day 1 only, % increase in life span; assay type: in vivo
Procedure: The compound in 1% NaHCO3 solution was tested against the L1210 leukemia in BDF1 mice [10^6 cells given to mice on Day 0, treatment (ip) on Day 1 only] in laboratory and the following % increases in life span (%ILS) were noted: […]

L1210 leukemia [6] = test: Delayed (Day 3) treatment of L1210 leukemia, compound singly and in combination regimen; assay type: in vivo, BDF1 mice; conditions: for >60 day survivors: Day 3
Procedure: The compound in 1% NaHCO3 solution was tested against the L1210 leukemia in BDF1 mice [10^6 cells given to mice on Day 0, treatment (ip) on Day 1 only] in laboratory and the following % increases in life span (%ILS) were noted:
The compound singly and in combination regimen
When treatment was delayed until Day 3, 5 mg/kg gave 51% ILS, 42% ILS and 39% ILS in three experiments.

Approximate LD50 = assay type: in vivo; conditions: mice
L1210 leukemia [7] = test: Second screener, L1210 leukemia, day 1, 5, 9 schedule; assay type: in vivo, mice; conditions: 6.25 mg/kg
Text: The compound was submitted to the Drug Development Branch of the National Cancer Institute and assigned NSC Number 271674. It was screened against the L1210 leukemia on a day 1, 5, 9 schedule and the following results were obtained:

murine leukemia L1210 = test: Antileukemic activity in mice against murine leukemia L1210 (general statement); assay type: in vivo
Text: Some previous platinum chelate compounds show dosage limitation due to renal impairment but the free carboxyl of the present composition offers a possible route of oral […] and absorption by the stomach.

[8] = first line, optimal dose (mg/kg/inj): NSC-119875 2, NSC-271674 6.25
[9] = second line, optimal dose (mg/kg/inj): NSC-119875 1, NSC-271674 1.56
[10] = first line, optimal dose (mg/kg/inj): NSC-119875 2, NSC-271674 0.78
[11] = second line, optimal dose (mg/kg/inj): NSC-119875 2, NSC-271674 1.56
[12] = first line, optimal dose (mg/kg/inj): NSC-119875 2, NSC-271674 3.12
[13] = second line, optimal dose (mg/kg/inj): NSC-119875 2, NSC-271674 6.25
[14] = first line, optimal dose (mg/kg/inj): NSC-119875 8, NSC-271674 6.25
[15] = second line, optimal dose (mg/kg/inj): NSC-119875 8, NSC-271674 25
[16] = first line, optimal dose (mg/kg/inj): NSC-119875 8, NSC-271674 12.5
[17] = second line, optimal dose (mg/kg/inj): NSC-119875 16, NSC-271674 50

O=c1[nH]cc(F)c(=O)[nH]1 [5-fluorouracil]
mean survival times [1]: significantly increased

NC(=O)NO [Hydroxyurea, hydroxyurea]
effectiveness when used alone (L1210 leukemia [2]): only minimally effective

N.N.[Cl][Pt][Cl] [NSC-119875, Cis-dichlorodiamino platinum II]
ID50 L1210 (L1210 cells): 0.05 mg/L | ID50 L1210/DDP [3]: 2.50 mg/L | % ILS, P388 (P388 leukemia): 145% | Survival (Days), P388 (P388 leukemia): 32.6 days | % ILS, P388/DDP (P388/DDP leukemia): 41% | Survival (Days), P388/DDP (P388/DDP leukemia): 15.5 days | % T/C (survival time) (B16 melanoma; [8]): 193% | % T/C (survival time) (B16 melanoma; [9]): 166% | % T/C (survival time) (L1210; [10]): 151% | % T/C (survival time) (L1210; [11]): 182% | % T/C (survival time) (Lewis lung; [12]): 135% | % T/C (survival time) (Lewis lung; [13]): 177% | % T/C (tumor weight) (CD8Fl mammary; [14]): 0% | % T/C (tumor weight) (CD8Fl mammary; [15]): 0% | % T/C (tumor weight) (Colon #38; [16]): 42% | % T/C (tumor weight) (Colon #38; [17]): 11%

NC1CCCCC1N.O=S(=O)([O-])[O-].[Pt+2] (centres unmarked) [NSC-250427, sulfato(1,2diaminocyclohexane)platinum (II)]
Body Weight Loss [4]: 2 | Clinical Chemistry - Blood Urea Nitrogen [4]: 1 | Clinical Chemistry - Creatinine [4]: 1 | Clinical Chemistry - Serum Glutamic Pyruvic Transaminase [4]: 5 | Hematology - Hematocrit [4]: 3 | Hematology - White Blood Cell [4]: 3 | Histopathology - Gastrointestinal [4]: 1 | Histopathology - Hematopoietic [4]: 4 | Histopathology - Lymphatic [4]: 2 | Histopathology - Renal [4]: 2 | TOTAL SCORE [4]: 24

N[C@@H]1CCCC[C@H]1N.O=C([O-])c1ccc(C(=O)[O-])c(C(=O)[O-])c1.[H+].[Pt+2] [NSC-271674, 4-Carboxyphthalato(1,2-diaminocyclohexane)platinum(II)]
% increases in life span (% ILS) (L1210 leukemia [5]; 5 mg/kg ip): 70% | % increases in life span (% ILS) (L1210 leukemia [5]; 10 mg/kg ip): 118% | % increases in life span (% ILS) (L1210 leukemia [5]; 20 mg/kg ip): 119% | % increases in life span (% ILS) (L1210 leukemia [5]; 25 mg/kg ip): 139% | % increases in life span (% ILS) (L1210 leukemia [5]; 40 mg/kg ip): 232% | % increases in life span (% ILS) (L1210 leukemia [5]; 50 mg/kg ip): 288% | % increases in life span (% ILS) (L1210 leukemia [5]; 60 mg/kg ip): 174% | % ILS (L1210 leukemia [6]; 5 mg/kg alone, Day 3 treatment, three experiments): 51% and 42% and 39% | >60 day survivors (L1210 leukemia [6]; 5 mg/kg with cyclophosphamide (50 mg/kg) and 5-fluorouracil (75 mg/kg)): 8 of 10 | >60 day survivors (L1210 leukemia [6]; 5 mg/kg with cyclophosphamide (50 mg/kg), two experiments): 3 of 10 and no >60 day survivors | approximate LD50 (Approximate LD50): ~75 mg/kg | questionably toxic deaths (L1210 leukemia [7]): 2 | ID50 L1210 (L1210 cells): 0.30 mg/L | ID50 L1210/DDP [3]: 0.23 mg/L | % ILS, P388 (P388 leukemia): 56% | Survival (Days), P388 (P388 leukemia): 20.7 days | % ILS, P388/DDP (P388/DDP leukemia): 201% | Survival (Days), P388/DDP (P388/DDP leukemia): 33.3 days | activity against strains of murine leukemia wherein NSC 119875 has exhausted its activity (P388/DDP leukemia; murine leukemia strains): appears to be active | % T/C (survival time) (B16 melanoma; [8]): 171% | % T/C (survival time) (B16 melanoma; [9]): 159% | % T/C (survival time) (L1210; [10]): 174% | % T/C (survival time) (L1210; [11]): 325% | % T/C (survival time) (Lewis lung; [12]): 122% | % T/C (survival time) (Lewis lung; [13]): 127% | % T/C (tumor weight) (CD8Fl mammary; [14]): 11% | % T/C (tumor weight) (CD8Fl mammary; [15]): 25% | % T/C (tumor weight) (Colon #38; [16]): 50% | % T/C (tumor weight) (Colon #38; [17]): 33% | testing for renal toxicity ([4]; against NSC 119875): superior results | Body Weight Loss [4]: 3 | Clinical Chemistry - Blood Urea Nitrogen [4]: 1 | Clinical Chemistry - Creatinine [4]: 1 | Clinical Chemistry - Serum Glutamic Pyruvic Transaminase [4]: 3 | Hematology - Hematocrit [4]: 3 | Hematology - White Blood Cell [4]: 3 | Histopathology - Gastrointestinal [4]: 1 | Histopathology - Hematopoietic [4]: 5 | Histopathology - Lymphatic [4]: 1 | Histopathology - Renal [4]: 2 | TOTAL SCORE [4]: 23 | potentiation in a treatment with cyclophosphamide (murine leukemia L1210; CY 50 mg/kg): is potentiated | antileukemic activity (murine leukemia L1210; mice, L1210): has shown antileukemic activity | effective dosages (murine leukemia L1210; mice, L1210): 5-60 mg/kg of body weight

CC(C)N.CC(C)N.[Cl-].[Cl-].[OH-].[OH-].[Pt] [NSC-256927, bisisopropylamine-cis-dichloro-trans-dihydroxy platinum (IV)]
Body Weight Loss [4]: 2 | Clinical Chemistry - Blood Urea Nitrogen [4]: 1 | Clinical Chemistry - Creatinine [4]: 1 | Clinical Chemistry - Serum Glutamic Pyruvic Transaminase [4]: 3 | Hematology - Hematocrit [4]: 4 | Hematology - White Blood Cell [4]: 3 | Histopathology - Gastrointestinal [4]: 1 | Histopathology - Hematopoietic [4]: 4 | Histopathology - Lymphatic [4]: 4 | Histopathology - Renal [4]: 2 | TOTAL SCORE [4]: 25

N.N.O=C([O-])C1(C(=O)[O-])CCC1.[Pt+2] [NSC-241240, diamine[1,1cyclobutanedicarboxylato (2)-0,0']platinum]
Body Weight Loss [4]: 1 | Clinical Chemistry - Blood Urea Nitrogen [4]: 1 | Clinical Chemistry - Creatinine [4]: 1 | Clinical Chemistry - Serum Glutamic Pyruvic Transaminase [4]: 3 | Hematology - Hematocrit [4]: 4 | Hematology - White Blood Cell [4]: 3 | Histopathology - Gastrointestinal [4]: 1 | Histopathology - Hematopoietic [4]: 5 | Histopathology - Lymphatic [4]: 1 | Histopathology - Renal [4]: 1 | TOTAL SCORE [4]: 21
